Measurements from patent publication EP1370276B1, “INTERCELLULAR COMMUNICATION FACILITATING COMPOUNDS AND THEIR MEDICAL USE” (Zealand Pharma A/S, priority 2001, dated 2002).

Key:
human osteoblastic cells = experiment: Intercellular calcium waves after mechanical stimulation, human osteoblastic cells; type: cell-based
Description: Human osteblast cells (hOB): Cells were isolated from human bone marrow obtained by puncture of the posterior iliac spine of healthy volunteers (aged 20-36): 10-15 ml marrow material was collected in 15 ml PBS+Ca,Mg (Life Technologies, Cat.No. 14040) with 100 U/ml Heparin (Sigma, Cat.No. H-3149). The mononuclear fraction of the marrow was isolated on a Lymphoprep gradient (Nycomed Pharma, Cat.No. 1001967), by centrifugation at 2200 rpm for 30 min. After harvesting, the mononuclear fraction was washed once with culture medium and centrifuged at 1800 rpm for 10 min. Subsequently cells were counted and plated in culture medium at 8x10^6 cells/100 mm dish. hOB medium (all reagents obtained from Life Technologies): MEM w/o Phenol Red w/ Glutamax (Cat.No. 041-93013) supplemented with 10% heat inactivated fetal calf serum (Cat.No. 10106) and 0.1% Penicillin/Streptomycin (Cat.No. 15140). Medium was changed the following day and the cells were cultured at 37°C in 5%CO2 with medium change every 7 days. After 3-4 weeks of culture the cells had reached 70% confluence. The medium was then supplemented with 100 nM Dexamethasone (Sigma, Cat.No. D-4902) for 7 days. Cells were then plated for video imaging experiments: a 25 mm #1 glass coverslip was
placed in a 35 mm dish (or each well of a 6-well multidish), cells were plated at 2.5×10^5 cells/coverslip and cultured for 2-3 days before use. […]

[1] = system: calcium-induced arrythmias; experiment: Calcium-induced arrhythmia model in mice (time to 2nd degree AV-block); type: in vivo; details: mouse, in vivo
Description: The antiarrhythmic effects of compounds of this invention were tested in an in vivo model of calcium-induced arrythmias according to the model of Lynch et al. ^[37]. […]. Commercial solutions of hypnorm and midazolam were diluted 1:1 in distilled water and one part diluted Hypnorm® is mixed with one part diluted midazolam.
The anaesthesia was induced by s.c. administration in a dose of […]. An i.v. cannula was inserted into the tail vein. The lead II ECG signal was recorded continuously by positioning of a stainless steel ECG electrodes on the right forelimb and on the left hind limb. The ground electrode was placed on the right hind limb. The signal was amplified (x 5.000-10.000) and filtered (0.1-150 Hz) via a Hugo Sachs Electronic model 689 ECG module. The analogue signal was digitised via a 12 bit data acquisition board (Data Translation model DT321) and sampled at 1000 Hz using the Notocord HEM 3.1 software for Windows NT. After a 10-min equilibration period, the test sample of drug was injected into the tail vein. Mice pre-treated with vehicle were tested as a measure of the control level in untreated animals. The injection volume was 100 µl in all experiments. Infusion of CaCl2 (30 mg/ml, 0.1 ml/min ≈ 100 mg/kg/min (calciumchlorid-2-hydrat, Riedel-de Haën, Germany)) was started 3 min after i.v. administration of drug or vehicle. The time lag to onset of 2nd degree AV-block was determined as the time from the start of CaCl2 infusion until the first arrhythmic event occured. An event of 2nd degree AV-block was defined as intermittent failure of the AV conduction characterised by a P-wave without the concomitant QRS complex.
Responses were expressed relative to the time until 2nd degree AV-block occurred in vehicle treated mice.

human osteoblast = human osteoblast cultures and osteoblastic rat osteosarcoma cell lines; conference abstract; cited from earlier work
ROS 17/2.8 cells = experiment: Intercellular calcium waves after mechanical stimulation, ROS 17/2.8 cells; type: cell-based, rat; details: 10^-8 M, 10 minutes, after 48 hours hypoxia 3-6% O2 (2.2 cells before)
Description: ROS 17/2.8 cells: Cells were cultured in 100 mm dishes at 37°C with 5% CO2 and medium change every 2-3 days. ROS medium (all reagents obtained from Life Technologies): MEM (Cat.No. 31095) supplemented with 10% heat-inactivated calf serum (Cat.No. 16170), 1% NEAA (Cat.No. 11140), 1% Sodium Pyruvate (Cat.No. 11360), 1% L-Glutamine (Cat.No. 25030) and 0.1% Penicillin/Streptomycin (Cat.No. 15140). For video imaging experiments, cells were plated on coverslips at 2-3×10^5 cells/coverslip and cultured for 2-3 days before use.
The cells cultured on coverslips were loaded with 5 µM fura-2-AM (Molecular Probes, Cat.No. F-1221), for 30 minutes at 37°C, and incubated in fresh medium for 20 minutes. Coverslips were then affixed to a PDMI-2 culture chamber (Medical Systems Corp.), maintained at 37°C with superfused CO2, on a Zeiss Axiovert microscope. Intercellular calcium waves were induced by mechanical stimulation of a single cell using a borosilicate glass micro pipette affixed to an Eppendorf 5171 micromanipulator. Imaging was performed using a MetaMorph imaging system (Universal Imaging). The excitation light (340 and 380 nm) was provided by a monochromator (T.I.L.L. Photonics GmbH). Images were acquired with an intensified CCD camera (Dage MTI) and digitized with a Matrox MVP image processing board.

Ac-D-Tyr-D-Pro-D-4Hyp-Gly-D-Ala-Gly-NH2 [Compound 2]
average number of cells in the calcium wave (human osteoblastic cells; 10^-8 M, medium without glucose, after ATP desensitization (1.4 cells before)): 2.9 cells | average number of cells in the calcium wave (human osteoblastic cells; 10^-8 mol/l, 10 minutes, after ATP desensitization (4.5 cells before)): 6.2 cells | CaCl2 mice Score [1]: 3 | hypoxia-induced decrease of dye transfer after Lucifer Yellow injections (human osteoblast): completely reversed | average number of cells in the calcium wave (ROS 17/2.8 cells): 5.4 cells
